Experiment: Storage stability at room temperature
Assay type: physicochemical

Compound | storage stability at room temperature (water dissolution) | storage time at room temperature (air/water stability)
O=C(O)CN(CCN1CC(=O)OC(=O)C1)CCN1CC(=O)OC(=O)C1 [DTPA anhydride] | much unstable | –
O=C(CN(CCSC(c1ccccc1)(c1ccccc1)c1ccccc1)CC(=O)ON1C(=O)CCC1=O)NCCSC(c1ccccc1)(c1ccccc1)c1ccccc1 [SOCTA, succinimidyl-3,6-diaza-5-oxo-3-[2-((triphenyl-methyl)thio)ethyl]-8-[(triphenylmethyl)-thio]octanoate] | – | one
